Test results: patent US7632928B2, “Method and antibodies for detecting nitrofuran” (Charm Sciences, Inc, priority 2004, dated 2009)

Experiments:
[1] = system: antibody raised against FZDM-Glut-Thyroglobulin immunogen; experiment: AOZ ELISA competitive binding assay; conditions: positive controls at input levels 0.1 to 10 ppb; PEB vs PBS buffer; plate coated with N-linked FZDM-BSA
Source text: An AOZ ELISA competitive binding assay is shown below, where the N-linked direct conjugate of FZDM-BSA is used as a binding partner conjugate coated on the ELISA plate, and the N-linked direct conjugate of FZDM-alpha-amylase is used as the positive control of protein-bound FZDM in comparison with the FZDM positive control. The antibody used in the assay was raised against the prior art FZDM-Glut-Thyroglobulin immunogen. Assays were run in two different buffers comparing PEB (Protein Elution Buffer) vs. PBS (Phosphate buffer saline).

SMILES: N#CC=CC(=O)/C=N/N1CC(=O)NC1=O [compound 1, 5-(2,4-Dioxoimidazolidin-1-ylimino)-4-oxo-pent-2-enenitrile]
- melting point: 171 to 173 °C

SMILES: N#CC=CC(=O)/C=N/N1CCOC1=O [compound 3, 5-(2-oxo-oxazolidin-3-ylimino)-4-oxo-pent-2-enenitrile]
- dose-responses (% inhibition) [1]: varying dose-responses
